Reference: patent publication US20050107356A1, “Combination of a CB1 receptor antagonist and of a product which activates dopaminergic neurotransmission in the brain, the pharmaceutical compositions comprising them and their use in the treatment of parkinson's disease” (Aventis Pharma S.A., priority 2001, published 2005)
Marks after values point to notes of the source that are not given here.

Assays:
Format in all cases: in vivo
Reserpine-treated rats [1] = test: Reserpine-induced akinesia in the rat, locomotor activity; CB1 antagonist i.p. co-administered with quinpirole (D2 dopaminergic agonist); settings: CB1 antagonist 1.5 mg/kg i.p., locomotor activity recorded 1 hour
Procedure: (§1) The synergistic effect of the combination of one or more products which activate dopaminergic neurotransmission in the brain and of one or more CB1 antagonists in the treatment of Parkinson's disease was determined in a model of akinesia induced by reserpine in the rat according to the following protocol:
(§2) Male Sprague-Dawley rats were treated with reserpine administered subcutaneously at a dose of 3 mg/kg (1 ml/kg) in order to induce akinesia in the animal. 18 hours after this treatment, the locomotor activity of these animals was measured and recorded using an automatic system (Videotrack, France). The locomotion, expressed in centimeters, is estimated by a mean overall distance covered during this period (n=11-38 rats per group). The statistical analysis is carried out by a variance analysis and a post-hoc comparison (if appropriate) using a Mann-Whitney or Dunnett test. A significant effect is recorded for p<0.05.
(§3) The results for the ip administration of the CB1 antagonists (Table 1) are expressed as percentage of increase with respect to the activity of quinpirole and as percentage of decrease with respect to the activity of a very strong dose of levodopa.
The combination of a CB1 receptor antagonist and of a D2 dopaminergic agonist (quinpirole) is produced in the following way: […]

Reserpine-treated rats [2] = test: Reserpine-induced akinesia in the rat, locomotor activity; CB1 antagonist i.p. co-administered with a strong dose of levodopa + benserazide (dyskinesia model); settings: CB1 antagonist 3 mg/kg i.p., levodopa + benserazide 50 mg/kg, recorded 2.5 hours
Procedure: as §1, §2, §3
The combination of a CB1 receptor antagonist and of a strong dose of levodopa (dyskinesia model) is produced in the following way: […]

Reserpine-treated rats [3] = test: Reserpine-induced akinesia in the rat, locomotor activity; CB1 antagonist po one hour before C1-APB (SKF 82958, D1 dopaminergic agonist); settings: recorded 1 hour
Procedure: as §1, §2
(§4) The studies by the oral route are carried out in a hydrophobic formulation solvent Labrafil/Labrasol (40/60%, w/w). These products are administered (in a volume of 1 ml/kg) one hour before the dopaminergic agonist. The recording of the locomotor activity begins 5 min after the intraperitoneal injection of the dopaminergic agonist and lasts 1 hour. The D1 dopaminergic agonist is 0.3 mg/kg C1-APB. The D2 dopaminergic agonist is 0.1 mg/kg quinpirole.

Reserpine-treated rats [4] = test: Reserpine-induced akinesia in the rat, locomotor activity; CB1 antagonist po one hour before quinpirole (D2 dopaminergic agonist); settings: recorded 1 hour
Procedure: as §1, §2, §4

In the case of CS(=O)(=O)C(=C1CN(C(c2ccc(Cl)cc2)c2ccc(Cl)cc2)C1)c1cc(F)cc(F)c1 [Example 1, 1-[bis(4-chlorophenyl)methyl]-3-[(3,5-difluorophenyl)(methylsulfonyl)methylene]azetidine], the “Combination with quinpirole (62.5 μg/kg ip): percentage of increase with respect to the activity of quinpirole” value (Reserpine-treated rats [1]) is reported as “+125%***”, the “Combination with levodopa (120 mg/kg ip): percentage of decrease with respect to the activity of a very strong dose of levodopa” value (Reserpine-treated rats [2]) is reported as −42%* and the “Combination with C1-APB (0.3 mg/kg ip): percentage of decrease with respect to the activity of a strong dose of C1-APB” value (Reserpine-treated rats [3]; CB1 antagonist 1 mg/kg po) is reported as −33% NS. The “Combination with C1-APB (0.3 mg/kg ip): percentage of decrease with respect to the activity of a strong dose of C1-APB” value (Reserpine-treated rats [3]; CB1 antagonist 3 mg/kg po) was −67%**, the “Combination with C1-APB (0.3 mg/kg ip): percentage of decrease with respect to the activity of a strong dose of C1-APB” value (Reserpine-treated rats [3]; CB1 antagonist 10 mg/kg po) was −62%** and the “Combination with quinpirole (0.1 mg/kg ip): percentage of increase with respect to the activity of quinpirole” value (Reserpine-treated rats [4]; CB1 antagonist 1 mg/kg po) was “+33% NS”. The “Combination with quinpirole (0.1 mg/kg ip): percentage of increase with respect to the activity of quinpirole” value (Reserpine-treated rats [4]; CB1 antagonist 3 mg/kg po) was “+58%**” and the “Combination with quinpirole (0.1 mg/kg ip): percentage of increase with respect to the activity of quinpirole” value (Reserpine-treated rats [4]; CB1 antagonist 10 mg/kg po) was “+23% NS”.
